{"source": "patent US20240174622A1", "about": "“COMPOUND AND RADIOACTIVE LABELING COMPOUND” (NIHON MEDI-PHYSICS CO., LTD., priority 2021, published 2024)", "key": {"[1]": {"tested_on": "PC-3 tumor", "assay": "SPECT/CT, PC-3 tumor in mouse transplanted with LNCaP and PC-3", "assay_type": "in vivo", "details": "24 (and 48) hours after administration", "procedure": "LNCaP cells (1.0×10^7 cells/mouse) were suspended in a mixture of PBS and Matrigel (1:1, 150 μL) and subcutaneously transplanted to the right shoulder of a male CB17/IcrJcl-Prkdc^scid mouse kept in the same manner as in Example 1-1 under isoflurane anesthesia. In addition, a suspension of PC-3 cells (1.0×10^7 cells/mouse) in a mixture of PBS and Matrigel (1:1, 150 μL) was subcutaneously transplanted into the left shoulder of the same mouse under isoflurane anesthesia. Thereafter, the mouse was kept for 40 to 60 days. In this way, a tumor-transplanted mouse in which LNCaP cells and PC-3 cells were simultaneously transplanted into one mouse was obtained. The tumor-transplanted mouse was then administered saline solution (2.7 MBq, 100 μL) of [^111In]In-PtDA from the tail vein. SPECT/CT was performed 24 and 48 hours after administration with FX3300 pre-clinical imaging system, which is manufactured by Gamma Medica-Ideas. Imaging was performed using a pinhole collimator with a diameter of 1.0 mm at a rotation radius of 35 mm, a projection time of 70 seconds, and the number of projections of 32 times under isoflurane anesthesia. After SPECT, CT (Tube voltage: 60 kV, Tube current: 350 μA) was performed. Image reconstruction was performed on the projection data of SPECT through three-dimensional ordered subset expectation maximization method (8 subsets, 5 iterations). […]"}, "[2]": {"tested_on": "LNCaP tumor-transplanted mouse", "assay": "Internal radioactivity distribution using LNCaP tumor-transplanted mouse", "assay_type": "in vivo", "in_short": "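Male SCID mice bearing subcutaneous LNCaP or PC-3 xenografts (40–60 days) received the 111In-labelled compound i.v. via tail vein (185–259 kBq in saline; n=2–3). Blood and organs collected at 1 to 192 hours post-dose, weighed and counted. Uptake expressed as %ID/g.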"}}, "note": "Several values for one entry are separate records, joined by “and”; a condition that tells them apart may be missing. Identical values can stand only once.", "data": [{"smiles": "O=C([O-])CN1CCN(C(CCC(=O)NCCC(=O)N2Cc3ccccc3-c3c(nnn3CCOCCOCCOCCOCCC(=O)NCCCC[C@H](NC(=O)N[C@@H](CCC(=O)O)C(=O)O)C(=O)O)-c3ccccc32)C(=O)[O-])CCN(CC(=O)[O-])CCN(C(CCC(=O)N[C@@H](CCCCNC(=O)CCCc2ccc(I)cc2)C(=O)O)C(=O)[O-])CC1.[111In+3]", "note": "(stereo partly shown) [[^111In]In-PtDA]", "values": [{"measurement": "radioactivity signal in the PC-3 tumor in SPECT/CT", "setting": "[1]", "value": "almost no radioactive signal"}, {"measurement": "Blood", "setting": "[2]; 1 h after administration", "value": "19.8 ± 2.74", "unit": "% ID/g"}, {"measurement": "Brain", "setting": "[2]; 1 h after administration", "value": "0.36 ± 0.05", "unit": "% ID/g"}, {"measurement": "Heart", "setting": "[2]; 1 h after administration", "value": "5.49 ± 0.77", "unit": "% ID/g"}, {"measurement": "Intestine", "setting": "[2]; 1 h after administration", "value": "2.66 ± 0.28", "unit": "% ID/g"}, {"measurement": "Kidney", "setting": "[2]; 1 h after administration", "value": "37.2 % ID/g and 37.2 ± 6.85 % ID/g"}, {"measurement": "LNCaP Tumor", "setting": "[2]; 1 h after administration", "value": "2.18 ± 0.17", "unit": "% ID/g"}, {"measurement": "Liver", "setting": "[2]; 1 h after administration", "value": "3.51 ± 0.38", "unit": "% ID/g"}, {"measurement": "Lung", "setting": "[2]; 1 h after administration", "value": "11.9 ± 1.57", "unit": "% ID/g"}, {"measurement": "Muscle", "setting": "[2]; 1 h after administration", "value": "1.95 ± 0.30", "unit": "% ID/g"}, {"measurement": "Pancreas", "setting": "[2]; 1 h after administration", "value": "2.31 ± 0.14", "unit": "% ID/g"}, {"measurement": "Spleen", "setting": "[2]; 1 h after administration", "value": "15.3 ± 4.89", "unit": "% ID/g"}, {"measurement": "Stomach (% ID)", "setting": "[2]; 1 h after administration", "value": "0.79 ± 0.19", "unit": "% ID"}, {"measurement": "Blood", "setting": "[2]; 24 h after administration", "value": "12.5 ± 1.47", "unit": "% ID/g"}, {"measurement": "Brain", "setting": "[2]; 24 h after administration", "value": "0.30 ± 0.05", "unit": "% ID/g"}, {"measurement": "Heart", "setting": "[2]; 24 h after administration", "value": "3.95 ± 0.87", "unit": "% ID/g"}, {"measurement": "Intestine", "setting": "[2]; 24 h after administration", "value": "1.52 ± 0.41", "unit": "% ID/g"}, {"measurement": "Kidney", "setting": "[2]; 24 h after administration", "value": "68.0 ± 2.82", "unit": "% ID/g"}, {"measurement": "LNCaP Tumor", "setting": "[2]; 24 h after administration", "value": "16.0 % ID/g and 16.0 ± 9.49 % ID/g"}, {"measurement": "Liver", "setting": "[2]; 24 h after administration", "value": "3.36 ± 0.77", "unit": "% ID/g"}, {"measurement": "Lung", "setting": "[2]; 24 h after administration", "value": "8.63 ± 1.31", "unit": "% ID/g"}, {"measurement": "Muscle", "setting": "[2]; 24 h after administration", "value": "1.28 ± 0.34", "unit": "% ID/g"}, {"measurement": "Pancreas", "setting": "[2]; 24 h after administration", "value": "2.03 ± 0.48", "unit": "% ID/g"}, {"measurement": "Spleen", "setting": "[2]; 24 h after administration", "value": "9.69 ± 0.92", "unit": "% ID/g"}, {"measurement": "Stomach (% ID)", "setting": "[2]; 24 h after administration", "value": "0.46 ± 0.23", "unit": "% ID"}, {"measurement": "Blood", "setting": "[2]; 48 h after administration", "value": "6.33 ± 1.53", "unit": "% ID/g"}, {"measurement": "Brain", "setting": "[2]; 48 h after administration", "value": "0.20 ± 0.07", "unit": "% ID/g"}, {"measurement": "Heart", "setting": "[2]; 48 h after administration", "value": "1.98 ± 0.41", "unit": "% ID/g"}, {"measurement": "Intestine", "setting": "[2]; 48 h after administration", "value": "0.74 ± 0.28", "unit": "% ID/g"}, {"measurement": "Kidney", "setting": "[2]; 48 h after administration", "value": "55.9 ± 6.39", "unit": "% ID/g"}, {"measurement": "LNCaP Tumor", "setting": "[2]; 48 h after administration", "value": "18.7 % ID/g and 18.7 ± 5.21 % ID/g"}, {"measurement": "Liver", "setting": "[2]; 48 h after administration", "value": "2.28 ± 0.75", "unit": "% ID/g"}, {"measurement": "Lung", "setting": "[2]; 48 h after administration", "value": "6.16 ± 1.56", "unit": "% ID/g"}, {"measurement": "Muscle", "setting": "[2]; 48 h after administration", "value": "0.81 ± 0.40", "unit": "% ID/g"}, {"measurement": "Pancreas", "setting": "[2]; 48 h after administration", "value": "1.12 ± 0.39", "unit": "% ID/g"}, {"measurement": "Spleen", "setting": "[2]; 48 h after administration", "value": "10.5 ± 5.62", "unit": "% ID/g"}, {"measurement": "Stomach (% ID)", "setting": "[2]; 48 h after administration", "value": "0.29 ± 0.20", "unit": "% ID"}]}]}
